The source of these data is PubChem BioAssay AID624167 (Sanford-Burnham Center for Chemical Genomics, 2012).

For experiment [1], the target named is PEG-3 (UniProt Q6IN02). The experiment is described as follows: Peg3 promoter luciferase inhibitors, potency, dose response, cell-based, HeLa, CREF/GAPDH counter-screen panel (AID 624167). To be noted: HeLa PEG-Prom luciferase reporter, overnight, CREF/GAPDH counter-screens, mean of runs. Background: Counterscreens check selectivity or assay interference.
Experiment [2] has as its system PEG-3. The description is as above. The following applies: HeLa PEG-Prom luciferase reporter, overnight, CREF/GAPDH counter-screens. Background: Reporter assays use an easily measured gene product as a stand-in for the process of interest.
Setting [3] is: run 1, dose range 1, individual replicate IC50 per panel.
The mark [4] stands for this setting: run 2, dose range 1, individual replicate IC50 per panel.

Active and inactive are the calls of the source.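 How the source made its calls: active means mean IC50 for reducing PEG3 promoter reporter signal at or below a set limit, with IC50 above the limit in both counter screens; inactive means the rest, including counter screen hits.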 Where only a bound is given, the exact number is not on record here.

Chain of PEG-3 (UniProt Q6IN02) (Q6IN02 whole entry, looked up): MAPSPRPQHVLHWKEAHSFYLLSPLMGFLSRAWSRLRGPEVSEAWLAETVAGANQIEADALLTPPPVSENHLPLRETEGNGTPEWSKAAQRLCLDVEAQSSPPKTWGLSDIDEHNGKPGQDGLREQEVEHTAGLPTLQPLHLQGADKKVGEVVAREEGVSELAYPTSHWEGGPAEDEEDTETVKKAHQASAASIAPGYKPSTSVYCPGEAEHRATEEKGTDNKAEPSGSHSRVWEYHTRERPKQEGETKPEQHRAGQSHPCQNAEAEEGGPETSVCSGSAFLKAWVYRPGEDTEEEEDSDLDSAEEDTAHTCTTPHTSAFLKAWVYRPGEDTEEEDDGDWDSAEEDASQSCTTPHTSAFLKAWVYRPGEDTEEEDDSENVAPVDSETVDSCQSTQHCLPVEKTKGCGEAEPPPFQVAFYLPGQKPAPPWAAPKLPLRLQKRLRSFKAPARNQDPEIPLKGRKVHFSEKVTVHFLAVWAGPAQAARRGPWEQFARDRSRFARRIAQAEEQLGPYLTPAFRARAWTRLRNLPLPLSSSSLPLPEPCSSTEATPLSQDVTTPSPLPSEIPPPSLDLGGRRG

As to `COc1ccc2nc3n(c(=O)c2c1)-c1cc2ccccc2cc1C(=O)NC3Cc1ccc(O)cc1` (stereo not drawn), the IC50 (usually the point on the concentration scale where inhibition reaches its midpoint) on PEG-3 [1] was 17.5 µM; with PEG-3 [2] (setting [3]), 21.2 µM; in the experiment on PEG-3 [2] (setting [4]), 13.9 µM.

With `CCCCCCCCNCCS(=O)(=O)NCc1ccc(OC)cc1`, the IC50 at PEG-3 [1] was 18 µM; with PEG-3 [2] (setting [3]), 17.7 µM; in the experiment with PEG-3 [2] (setting [4]), 18.3 µM.

Take `CN(C)CCCN(C(=O)c1ccc(C(=O)c2ccccc2)cc1)c1nc2cc3c(cc2s1)OCO3`: the IC50 on PEG-3 [1] was 16 µM; with PEG-3 [2] (setting [3]) it was 18.8 µM; in the experiment with PEG-3 [2] (setting [4]) it was 13.3 µM.

Consider `CN1OC[C@@H]2CN[C@H](c3ccc(-c4cc5ccccc5o4)cc3)C[C@@H]21`, for which the IC50 on PEG-3 [1] is 18.8 µM; in the experiment on PEG-3 [2] (setting [3]), 24.9 µM; in the experiment with PEG-3 [2] (setting [4]) it was 12.6 µM.

`CCOC(=O)CN(C(=O)CSc1nnc2c(n1)[nH]c1ccc(F)cc12)c1ccccc1`: the IC50 result at PEG-3 [1] is “inactive”. For the same compound, the figures for the IC50 with PEG-3 [2] (setting [3]) and in the experiment with PEG-3 [2] (setting [4]) were 25 µM and 21.7 µM, respectively.

`CCN(CCN(C)C)C(=O)C1CCN(S(=O)(=O)c2c(C)noc2/C=C/c2ccccc2F)CC1`: the IC50 result at PEG-3 [1] was “inactive”. Further, the IC50 with PEG-3 [2] (setting [3]) stood at 28.2 µM; in the experiment on PEG-3 [2] (setting [4]), 21.4 µM.

As for `COCCn1c(C)cc(C2=NNC(=NC3CC3)SC2)c1C`, the IC50 is 0.76 µM on PEG-3 [1], 1.32 µM with PEG-3 [2] (setting [3]) and less than 0.2 µM in the experiment with PEG-3 [2] (setting [4]).

Regarding `COc1cc(/C=C/C(=O)N2CCC=CC2=O)cc(OC)c1OC`, the figures for the IC50 at PEG-3 [1], with PEG-3 [2] (setting [3]) and with PEG-3 [2] (setting [4]) were 14 µM, 15.9 µM and 12.1 µM, respectively.

Regarding `Cn1cc(CN2CCCC(C(=O)Nc3ccc(-c4cccc(F)c4)cc3)C2)cn1` (stereo not drawn), the IC50 result at PEG-3 [1] was “inactive”. The IC50 was found to be 19.6 µM in the experiment on PEG-3 [2] (setting [3]) and 29.8 µM with PEG-3 [2] (setting [4]).

Consider `CC1=NN(c2cccc(C(=O)O)c2)C(=O)/C1=C\C=C/c1ccccc1`, for which the IC50 is 14.8 µM on PEG-3 [1], 17.7 µM in the experiment with PEG-3 [2] (setting [3]) and 12 µM in the experiment with PEG-3 [2] (setting [4]).

Consider `CCCCCCSc1cc(-c2nc3ccc(C)cn3c2NCCCC)ccc1OC`, for which the IC50 was 16.2 µM on PEG-3 [1], 21.4 µM in the experiment on PEG-3 [2] (setting [3]) and 11 µM with PEG-3 [2] (setting [4]).

For the compound `Cn1c(=O)c(C(=O)CCl)c(N)n(Cc2ccccc2)c1=O`, the IC50 result on PEG-3 [1] was “inactive”. In addition, the IC50 with PEG-3 [2] (setting [3]) amounted to 28.6 µM; in the experiment on PEG-3 [2] (setting [4]) it was 13.2 µM.

On to `O=S(=O)(c1cccs1)N1CCN(c2ccnc3cc(Cl)ccc23)CC1`, for which the IC50 at PEG-3 [1] is 17.4 µM; in the experiment on PEG-3 [2] (setting [3]), 11.7 µM; in the experiment on PEG-3 [2] (setting [4]) it was 23.2 µM.

For the compound `Cc1cc2sc3ccc(C#CC4(O)CCCCC4)cc3c(=O)c2cc1C`, the IC50 is 0.265 µM at PEG-3 [1], 0.265 µM in the experiment with PEG-3 [2] (setting [3]) and less than 0.2 µM in the experiment on PEG-3 [2] (setting [4]).

As for `CCCCCCCCCC[N+](C)(C)CC/C=C1/c2ccccc2Sc2ccc(Cl)cc21`, the figures for the IC50 on PEG-3 [1], with PEG-3 [2] (setting [3]) and with PEG-3 [2] (setting [4]) were 11.7 µM, 14.9 µM and 8.43 µM, respectively.

As for `CCc1ccc2c(c1)Sc1ccccc1CC2N1CCN(C)CC1` (stereo not drawn), the IC50 result on PEG-3 [1] was “inactive”. The IC50 amounted to 19.7 µM in the experiment with PEG-3 [2] (setting [3]) and 38 µM with PEG-3 [2] (setting [4]).

Regarding `CC(C)CC(N)c1csc(NC(=O)Nc2ccccc2C(C)C)n1` (stereo not drawn), the IC50 is 15.7 µM on PEG-3 [1], 30.1 µM in the experiment with PEG-3 [2] (setting [3]) and 1.37 µM in the experiment on PEG-3 [2] (setting [4]).

Turning to `C=C(C)Cn1c(SCC(=O)N/N=C/c2c(O)ccc3ccccc23)nc2ccccc2c1=O`, the IC50 at PEG-3 [1] is > 100 µM (inactive); with PEG-3 [2] (setting [3]), greater than 100 µM; in the experiment with PEG-3 [2] (setting [4]) it was greater than 100 µM.

As for `CC(C)n1cc(CN2CCC(C(=O)Nc3cccc(-c4cccc(Cl)c4)c3)CC2)cn1`, the IC50 is 13.4 µM at PEG-3 [1], 17.4 µM in the experiment with PEG-3 [2] (setting [3]) and 9.39 µM in the experiment on PEG-3 [2] (setting [4]).

With `COc1cccc(N2CCN(CC(=O)Nc3ccccc3C(=O)NCc3ccccc3)CC2)c1`, the IC50 entry at PEG-3 [1] was “inactive”. Further, the IC50 with PEG-3 [2] (setting [3]) was 16.6 µM; in the experiment with PEG-3 [2] (setting [4]), 35 µM.

Turning to `CN(C(=O)OC(C)(C)C)c1ccc(-c2nc3ccccc3s2)cc1`, the IC50 at PEG-3 [1] is 2.31 µM; in the experiment with PEG-3 [2] (setting [3]), less than 0.2 µM; in the experiment with PEG-3 [2] (setting [4]), 4.43 µM.

As for `Cc1ccc(C(=O)N/C(=C\c2ccc(-c3cccc([N+](=O)[O-])c3)o2)C(=O)NCCCN(C)C)cc1`, the IC50 at PEG-3 [1] was 17 µM; in the experiment with PEG-3 [2] (setting [3]), 18.6 µM; with PEG-3 [2] (setting [4]), 15.3 µM.

With `CCN(Cc1ccccc1)S(=O)(=O)c1ccc(C(=O)N(CCCN(C)C)c2nc3cc4c(cc3s2)OCO4)cc1`, the IC50 was 17.8 µM on PEG-3 [1], 19.6 µM in the experiment on PEG-3 [2] (setting [3]) and 16 µM in the experiment with PEG-3 [2] (setting [4]).

Regarding `COc1ccccc1CN(C)C(=O)c1cc(-c2cc(OC)c(OC)c(OC)c2)nc2ccccc12`, the IC50 result at PEG-3 [1] was “inactive”. Further, the IC50 in the experiment with PEG-3 [2] (setting [3]) was found to be 19.2 µM; with PEG-3 [2] (setting [4]) it was 40 µM.

For `Cc1c(CCOC(=O)C23CC4CC(CC(C)(C4)C2)C3)sc[n+]1CC(=O)c1ccccc1`, the IC50 result on PEG-3 [1] is “inactive”. In addition, the values for the IC50 in the experiment with PEG-3 [2] (setting [3]) and with PEG-3 [2] (setting [4]) were 21.8 µM and 21.7 µM, respectively.

With `O=S(=O)(Nc1cccc2ncccc12)c1cccs1`, the concentration for half-maximal inhibition (IC50) at PEG-3 [1] is 13.2 µM; in the experiment on PEG-3 [2] (setting [3]), 17.5 µM; in the experiment on PEG-3 [2] (setting [4]), 8.93 µM.
